Measured values as given in ChEMBL document CHEMBL3886923, “BTK inhibitors” (2016).

Target: Tyrosine-protein kinase BTK (Homo sapiens, UniProt Q06187)
Assay: LANCE-TR-FRET Assay: Assay Method B: BTK enzymatic activity was determined with the LANCE (Lanthanide Chelate Excite) TR-FRET (Time-resolved fluorescence resonance energy transfer) assay. In this assay, the potency (IC50) of each compound was determined from an eleven point (1:3 serial dilution; final compound concentration range in assay from 1 μM to 0.017 nM) titration curve using the following outlined procedure. To each well of a black non-binding surface Corning 384-well microplate (Corning Catalog #3820), 5 nL of compound (2000 fold dilution in final assay volume of 10 μL) was dispensed, followed by the addition of 7.5 μL of 1× kinase buffer (50 mM Hepes 7.5, 10 mM MgCl2, 0.01% Brij-35, 1 mM EGTA, 0.05% BSA & 1 mM DTT) containing 5.09 pg/μL (66.67 pM) of BTK enzyme (recombinant protein from baculovirus-transfected Sf9 cells: full-length BTK, 6HIS-tag cleaved). Following a 60 minute compound & enzyme incubation, each reaction was initiated by the addition of 2.5 μL 1× kinase buffer containing 8 μM biotinylated "A5" peptide (Biotin-EQEDEPEGDYFEWLE-NH2), and 100 μM ATP. The final reaction in each well of 10 μL consists of 50 pM hBTK, 2 μM biotin-A5-peptide, and 25 μM ATP. Phosphorylation reactions were allowed to proceed for 120 minutes. […]

Sequence of Tyrosine-protein kinase BTK (Q06187 whole entry): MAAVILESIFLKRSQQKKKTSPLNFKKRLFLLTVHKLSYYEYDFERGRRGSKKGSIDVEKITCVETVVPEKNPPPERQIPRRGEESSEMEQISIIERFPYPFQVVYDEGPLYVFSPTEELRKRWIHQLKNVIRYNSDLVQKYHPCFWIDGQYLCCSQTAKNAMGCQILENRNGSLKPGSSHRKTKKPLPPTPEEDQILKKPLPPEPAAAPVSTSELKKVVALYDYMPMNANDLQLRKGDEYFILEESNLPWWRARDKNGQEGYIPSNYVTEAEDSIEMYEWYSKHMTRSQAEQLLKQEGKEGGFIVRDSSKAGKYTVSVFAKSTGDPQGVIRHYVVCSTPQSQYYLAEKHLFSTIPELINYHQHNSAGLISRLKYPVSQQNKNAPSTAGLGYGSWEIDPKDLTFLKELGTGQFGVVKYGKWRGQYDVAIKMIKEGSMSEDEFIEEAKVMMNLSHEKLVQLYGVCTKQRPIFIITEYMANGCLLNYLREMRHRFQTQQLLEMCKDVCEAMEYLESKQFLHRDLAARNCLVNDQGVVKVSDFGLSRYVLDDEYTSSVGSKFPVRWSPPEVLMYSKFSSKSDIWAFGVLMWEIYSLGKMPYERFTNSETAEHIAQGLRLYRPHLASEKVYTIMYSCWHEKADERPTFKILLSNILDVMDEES

IC50: 2.7 nM
Compound: Cn1ncc2c1CCC[C@@H]2n1nc(-c2ccc(C(=O)Nc3cc(C(F)(F)F)ccn3)cc2)c2c(N)ncnc21
